Experimental data: patent US20160222412A1, “R[…] WITH S[…]-LOOP” (Tocagen Inc., priority 2013, published 2016)

Legend:
[1] = Intravenous Toca 511 in Balb/c mice, long-term vector biolocalization study; type: in vivo
Text: Intravenous injection of Toca 511 into Balb/C mice. 2.35×10̂6 or 2.35×10̂5 TU of Toca 511 was intravenously administered to 8-week-old female Balb/C mice. Approximately 180 days post infection, genomic DNA from various tissues was harvested for bio-locolization study. Genomic DNA from abnormal tissues such as thymus or lymph node was extracted for sequence analysis of the envelope and IRES-yCD2 cassette.
RRV can undergo changes in the length of the oligo adenosine in the A bulge of the EMCV IRES in vivo. […] In a vector biolocalization study conducted as part of a preclinical package to support initiation of clinical trials, Toca 511 was injected intravenously into a permissive mouse strain (Balb/c mice) to evaluate long-term vector bio-localization. […] DNA from the abnormal thymus or lymph nodes of 3 mice were harvested for molecular PCR cloning of proviral sequences, followed by sequencing analysis. One feature was that there were multiple copies of the virus including recombinants with endogenous mouse MCF envelope sequences present, as occurs with lymphomagenesis with ecotropic MLV infection (Fan, 1997). Further analyses are planned for a future publication. […] It appears that the oligo A number drifts preferentially towards longer oligo A in the A bulge. However, the nature of this preference was undefined in the in vivo study.

U87-MG cells = assay: yCD2 protein expression by immunoblot in infected U87-MG cells; type: cell-based, human; settings: fully infected U87-MG cells
Procedure: RRVs containing various numbers of A's in the J-K bifurcation region express similar levels of transcripts but different levels of protein expression. The viral supernatant from HT1080 cells was then used to infect naive U87-MG cells at multiplicity of infection (MOI) of 0.1. At day 10 post infection, when the cells were fully infected, cellular viral RNA levels were measured by quantitative real-time polymerase chain reaction (qRT-PCR), and protein expression level of yCD2 was examined by immunoblotting (Perez et al., 2012). The cellular viral RNA expression levels were measured using two different primer sets, located in the env (5′Env2: 5′-[…]-3′ (SEQ ID NO:47), 3′Env2: 5′-[…]-3′ (SEQ ID NO:48), probe: 5′FAM-[…]-3′BHQ (SEQ ID NO:49)) and in yCD2 region (5′yCD2: 5′-[…]-3′ (SEQ ID NO:50), 3′yCD2: 5′-[…]-3′ (SEQ ID NO:51), probe: 5′FAM-[…]-3′BHQ (SEQ ID NO:52)), respectively, (FIG. 2). The relative level of RNA from each vector was calculated using 2-^ΔΔ(Ct) method with respect to the vector containing the 6As. […] Therefore, the effect of the number of A's in the loop were analyzed with another transgene for which the protein expression assay was well defined. […]
Immunoblot and cell-based yCD2 enzymatic assay. […] Quantity One software (Bio-Rad) was used to quantify the signal of yCD2 and GAPDH detected on the immunoblots. […]

| Molecule | mice with abnormalities in lymphoid tissues ([1]; higher doses, 180 days, depending on the cohort) | change of oligo A length in A bulge of integrated proviruses in vivo ([1]; intravenous, approximately 180 days, abnormal thymus or lymph node) | yCD2 protein expression in comparison to the 6A variant with full-length IRES (U87-MG cells) |
| --- | --- | --- | --- |
| Toca 511: RRV with a 7A IRES expressing yCD2 (pAC3-yCD2; SEQ ID NO:22) | 10-20% | heterogeneous expansions of 7A to 8A, 9A, 10A, 11A and 12A and a contraction of 7A to 6A | – |
| 6A-466: RRV with yCD2 and minimum IRES, 6As, base 183 to 544 of SEQ ID NO:41 (nucleic acid, listed as Encephalomyocarditis virus, (492)..(492) “n” can be present or absent, if present n is “A”) DNA: AGGAAGCAGTTCCTCTGGAAGCTTCTTGAAGACAAACAACGTCTGTAGCGACCCTTTGCAGGCAGCGGAACCCCCCACCTGGCGACAGGTGCCTCTGCGGCCAAAAGCCACGTGTATAAGATACACCTGCAAAGGCGGCACAACCCCAGTGCCACGTTGTGAGTTGGATAGTTGTGGAAAGAGTCAAATGGCTCTCCTCAAGCGTATTCAACAAGGGGCTGAAGGATGCCCAGAAGGTACCCCATTGTATGGGATCTGATCTGGGGCCTCGGTGCACATGCTTTACATGTGTTTAGTCGAGGTTAAAAANCGTCTAGGCCCCCCGAACCACGGGGACGTGGTTTTCCTTTGAAAAACACGAT | – | – | shows expression of yCD2 |
